Laboratory results from publication PMC7694178, “Poziotinib Inhibits the Efflux Activity of the ABCB1 and ABCG2 Transporters and the Expression of the ABCG2 Transporter Protein in Multidrug Resistant Colon Cancer Cells” (Cancers, 2020).

What was measured:
ABCB1 transporter [1] = target: T1, ABCB1 transporter (Homo sapiens, UniProt P08183)
ABCG2 transporter = target: T2, ABCG2 transporter (Homo sapiens, UniProt Q9UNQ0); experiment: ATPase stimulation assay (ABCG2 expressed in High Five insect cells); supported by [3H]-mitoxantrone accumulation and efflux in S1-M1-80 cells; assay type: biochemical
T2 sequence (Q9UNQ0 1-655): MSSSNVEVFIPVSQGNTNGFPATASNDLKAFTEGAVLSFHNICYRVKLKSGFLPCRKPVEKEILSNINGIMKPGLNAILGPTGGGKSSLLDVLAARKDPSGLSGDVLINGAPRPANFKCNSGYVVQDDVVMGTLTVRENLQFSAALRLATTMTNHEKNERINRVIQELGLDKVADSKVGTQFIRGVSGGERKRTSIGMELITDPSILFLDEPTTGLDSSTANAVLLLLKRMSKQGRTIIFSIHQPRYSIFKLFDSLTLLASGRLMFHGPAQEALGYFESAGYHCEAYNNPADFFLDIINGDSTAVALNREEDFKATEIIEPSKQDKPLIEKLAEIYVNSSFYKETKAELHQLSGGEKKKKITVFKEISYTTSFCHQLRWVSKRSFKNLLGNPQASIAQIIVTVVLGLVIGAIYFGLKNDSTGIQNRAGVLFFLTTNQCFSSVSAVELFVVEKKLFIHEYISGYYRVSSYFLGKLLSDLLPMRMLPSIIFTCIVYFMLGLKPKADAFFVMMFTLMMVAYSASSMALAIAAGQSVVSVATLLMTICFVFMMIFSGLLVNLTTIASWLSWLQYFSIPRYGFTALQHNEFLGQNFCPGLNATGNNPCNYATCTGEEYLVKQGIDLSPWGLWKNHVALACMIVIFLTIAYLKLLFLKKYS

ABCB1 transporter [2] = target: T1, ABCB1 transporter; experiment: ATPase stimulation assay (ABCB1 expressed in High Five insect cells); supported by [3H]-paclitaxel accumulation and efflux in SW620/Ad300 cells; assay type: biochemical

T1 sequence (P08183 whole entry): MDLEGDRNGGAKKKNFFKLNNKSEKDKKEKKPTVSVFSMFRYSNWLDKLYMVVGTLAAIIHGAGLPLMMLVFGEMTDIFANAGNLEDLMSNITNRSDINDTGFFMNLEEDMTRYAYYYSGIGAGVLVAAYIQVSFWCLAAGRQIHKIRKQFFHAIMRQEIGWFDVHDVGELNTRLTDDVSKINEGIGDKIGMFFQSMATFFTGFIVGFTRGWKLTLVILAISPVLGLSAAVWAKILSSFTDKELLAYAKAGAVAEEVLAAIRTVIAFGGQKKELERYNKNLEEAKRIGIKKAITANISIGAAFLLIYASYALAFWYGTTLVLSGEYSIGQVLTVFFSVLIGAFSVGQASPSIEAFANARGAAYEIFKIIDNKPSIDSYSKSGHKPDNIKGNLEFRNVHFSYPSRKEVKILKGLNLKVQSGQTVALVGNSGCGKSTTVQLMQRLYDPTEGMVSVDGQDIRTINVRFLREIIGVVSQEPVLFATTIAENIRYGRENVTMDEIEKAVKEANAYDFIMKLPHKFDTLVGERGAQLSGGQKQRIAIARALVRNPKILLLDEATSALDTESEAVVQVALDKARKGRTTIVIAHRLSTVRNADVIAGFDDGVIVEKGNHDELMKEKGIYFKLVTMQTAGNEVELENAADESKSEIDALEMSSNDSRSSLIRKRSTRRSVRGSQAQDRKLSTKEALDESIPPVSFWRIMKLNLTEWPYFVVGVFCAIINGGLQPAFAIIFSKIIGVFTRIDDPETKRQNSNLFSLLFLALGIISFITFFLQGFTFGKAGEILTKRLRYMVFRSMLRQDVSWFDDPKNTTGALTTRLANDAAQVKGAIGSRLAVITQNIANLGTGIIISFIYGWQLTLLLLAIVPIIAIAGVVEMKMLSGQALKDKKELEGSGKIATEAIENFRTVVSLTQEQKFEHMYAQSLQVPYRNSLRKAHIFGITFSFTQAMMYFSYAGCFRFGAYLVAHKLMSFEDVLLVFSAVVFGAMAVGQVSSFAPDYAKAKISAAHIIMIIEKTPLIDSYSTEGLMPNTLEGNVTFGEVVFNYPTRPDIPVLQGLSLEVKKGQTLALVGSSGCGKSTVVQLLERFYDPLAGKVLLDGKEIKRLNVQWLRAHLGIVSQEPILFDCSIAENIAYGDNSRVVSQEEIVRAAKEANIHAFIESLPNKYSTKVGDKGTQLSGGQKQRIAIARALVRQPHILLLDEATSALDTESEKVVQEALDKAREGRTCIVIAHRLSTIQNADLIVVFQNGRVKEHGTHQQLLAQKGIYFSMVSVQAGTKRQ

Structure (SMILES) | radiolabelled substrate accumulation and efflux in SW620/Ad300 vs SW620 cells (ABCB1 transporter [1]) | EC50 (ABCG2 transporter) [nM] | EC50 (ABCB1 transporter [2]) [nM]
CC(=O)O[C@H]1C(=O)[C@@]2(C)[C@H]([C@H](OC(=O)c3ccccc3)[C@]3(O)C[C@H](OC(=O)[C@H](O)[C@@H](NC(=O)c4ccccc4)c4ccccc4)C(C)=C1C3(C)C)[C@]1(OC(C)=O)CO[C@@H]1C[C@@H]2O [paclitaxel] | overexpression of the ABCB1 transporter increases the efflux of the substrate, [^3H]-paclitaxel |  | 
C=CC(=O)N1CCC(Oc2cc3c(Nc4ccc(Cl)c(Cl)c4F)ncnc3cc2OC)CC1 [poziotinib] |  | 210 | 20
